Measurements: patent EP1935986B1, “Luminogenic and fluorogenic compounds and methods to detect molecules or conditions” (priority 2005, dated 2006)
“And” between values parts separate entries of the source, which are not always exact repeats. Equal values may be shown once. Read-outs that look alike come from different tables or passages of the source.

Legend:
[1] = test system: CYP3A
[2] = target: T1, CYP3A7 (Homo sapiens, UniProt P24462); experiment: Two-step luminescent P450 screen of luciferin derivatives; settings: result in words
[3] = target: T2, CYP4F12 (Homo sapiens, UniProt Q9HCS2); experiment: as above; format: biochemical; settings: result in words
T2 construct: purchased Discovery Labware (BD/Gentest); host or cells: insect cell expression system (membrane fractions)
T2 sequence (Q9HCS2 1-524): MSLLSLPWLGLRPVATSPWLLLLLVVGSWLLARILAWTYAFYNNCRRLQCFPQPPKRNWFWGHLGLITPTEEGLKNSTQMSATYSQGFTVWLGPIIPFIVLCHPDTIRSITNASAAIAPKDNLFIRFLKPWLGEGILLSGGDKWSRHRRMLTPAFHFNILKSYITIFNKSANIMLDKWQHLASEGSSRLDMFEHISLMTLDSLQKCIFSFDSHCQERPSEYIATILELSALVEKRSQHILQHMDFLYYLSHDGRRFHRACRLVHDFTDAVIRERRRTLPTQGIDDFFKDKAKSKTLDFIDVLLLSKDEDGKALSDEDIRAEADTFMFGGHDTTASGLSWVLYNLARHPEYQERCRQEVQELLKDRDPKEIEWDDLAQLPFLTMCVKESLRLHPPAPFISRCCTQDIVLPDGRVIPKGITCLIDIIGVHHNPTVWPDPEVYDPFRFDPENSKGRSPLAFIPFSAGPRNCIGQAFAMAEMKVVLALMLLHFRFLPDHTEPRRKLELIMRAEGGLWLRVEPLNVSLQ
Method: P450s are Supersomes™ purchased from Discovery Labware (BD/Gentest). […] HLM is human liver microsomes.
1X substrate concentration: 50 µM.

[4] = test system: luciferase; experiment: No-enzyme control: activity of luciferase towards the luciferin derivative (background luminescence)
[5] = target: T3, QuantiLum Luciferase (Photinus pyralis, UniProt P08659); experiment: Scaffolds: light emission of luciferin derivatives with QuantiLum luciferase alone, + Co A, + DTT, + Co A and DTT; format: biochemical, firefly
T3 construct: purchased Promega Corporation E170

[6] = target: T2, CYP4F12; settings: previously shown (Cali, 2005b); cited from earlier work
[7] = target: T4, CYP3A4 (Homo sapiens, UniProt P08684); experiment: Two-step luminescent P450 screen of luciferin derivatives; settings: result in words
[8] = test system: equine alcohol dehydrogenase; experiment: Effect of inhibitors on the conversion of luciferol by equine alcohol dehydrogenase; format: biochemical; settings: luciferol + equine ADH + NAD+ with 10 µl inhibitor solution, 37°C, 30 minutes; duplicate reactions #1, #2 (controls 1023, 1087)
Method: Trichloroethanol solution: A 0.48 ml sample of 2,2,2, trichloroethanol (Aldrich T5480-5) was dissolved in water.
Duplicate reactions were assembled (see Table 19).
Reactions were initiated by addition of 1.5 µl of luciferol solution. Upon addition of the luciferol solution, the reactions were mixed and placed at 37°C.

[9] = Non-enzymatic transformation of luciferin derivative by glutathione (no GST), luciferase read-out; format: biochemical; settings: time of mixing/20/40 minutes
Method: Buffer stock solutions (1 M) of BisTris at pH 6.5, HEPES, pH 7.0, 7.5 and 8.0 and Tricine pH 8.5 were prepared by dissolving solid reagent obtained from Sigma Chemical Corporation and adjusting the pH to the desired value.
The stock of S. japonica GST used in Example 1A was diluted to 1 mg/ml with 10 mM BisTris pH 6.5.
The reactions were initiated by addition of GST #3 and mixing. […]

[10] = test system: equine GST; experiment: Two-step bioluminogenic GST assay with luciferin derivative; format: biochemical; settings: versus GST M1-1 and GST A1-1; result in words
Method: The derivative was tested in a two step format. […] At different times after the reaction was initiated, a portion was removed and mixed with a luciferase reaction mixture. Reactions in which light production increased over time indicate that GST#3 is a substrate for the GST in that reaction.
Equine GST Solution: 25 mg of equine GST (Part G 6511, Sigma Chemical Company, St. Louis, MO) was dissolved in 5 ml of 10 mM BisTris buffer, pH 6.6. […] […] Glutathione (reduced) (Part G 4251, Sigma Chemical Company) was dissolved in water to create a 100 mM solution. GST #3 was dissolved in acetonitrile to produce a 12 mM solution.

[11] = target: T4, CYP3A4
[12] = target: T1, CYP3A7
[13] = target: T5, GST M1-1 (Homo sapiens, UniProt P09488, K173N); experiment: Bioluminogenic GST assay with acetyl luciferin; format: biochemical; settings: versus GST A1-1; result in words
T5 construct: purchased Sigma

[14] = target: T3, QuantiLum Luciferase; experiment: Emission spectra of luciferase reactions with luciferin, 5'-fluoroluciferin, 7'-fluoroluciferin; format: biochemical, firefly; settings: reagent pH 7.4
Method: All compounds except fluoroluciferin and ATP were purchased from Sigma Chemical. ATP was purchased from Amersham/Invitrogen.
Spectra were measured using 0.5s integration with 1 nm increments on a Spex Fluorolog.

[15] = target: T3, QuantiLum Luciferase; experiment: ATP titration of firefly luciferase reactions with luciferin and fluoroluciferins; format: biochemical; settings: result in words
Method: All compounds except 5'-fluoroluciferin and DTT were purchased from Sigma Chemical. To some of this reagent 5 mM ATP (Amersham/Invitrogen) was added, then serially diluted by half-logs to 0.05 mM. Reactions were initiated by adding equal volumes (0.1 ml) of reagent and DMEM medium (Gibco/Invitrogen) containing 0.1% Prionex® (Pentapharm) and 1.4 x 10-5 mg/ml QuantiLum™ Luciferase (Promega Corporation).
For ATP titrations for 7'-fluoroluciferin, reagent was created containing 200 mM HEPES, 200 mM PIPES, 1 mM CDTA, 0.5% Tergitol NP-9, 0.03% Benzyl dodecyldimethyl ammonium bromide, 30 mM thiourea, 10 mM magnesium sulfate, and 0.15 mM 7'-fluoroluciferin. This solution was separated into 3 parts and pH of the reagents were 7.4, 7.2 and 6.7. To some of this reagent, 10 mM ATP (Amersham/Invitrogen) was added. The ATP was serially diluted by quarter-logs from 10 mM to 0.32 mM.
Reactions were initiated by adding equal volumes (0.03 ml) of reagent and DMEM medium (Gibco/Invitrogen) containing 0.1% Prionex® (Pentapharm) and 1.4 x 10-5 mg/ml QuantiLum™ Luciferase (Promega Corporation).
Luminescence was measured for 0.5 seconds per well using Berthold Orion luminometer.

[16] = target: T3, QuantiLum Luciferase; experiment: pH titration of firefly luciferase reaction with 7'-fluoroluciferin; format: biochemical
[17] = target: CYP3A5 (Homo sapiens, UniProt P20815); experiment: Two-step luminescent P450 screen of luciferin derivatives; settings: result in words
[18] = Derivative Conc. 1.07, Co A + DTT
[19] = Derivative Conc. 3.13, Co A + DTT
[20] = Derivative Conc. 6.25, Co A + DTT
[21] = Derivative Conc. 12.5, Co A + DTT
[22] = Derivative Conc. 25, Co A + DTT
[23] = Derivative Conc. 50, Co A + DTT
[24] = Derivative Conc. 100, Co A + DTT

T3 sequence (P08659 whole entry): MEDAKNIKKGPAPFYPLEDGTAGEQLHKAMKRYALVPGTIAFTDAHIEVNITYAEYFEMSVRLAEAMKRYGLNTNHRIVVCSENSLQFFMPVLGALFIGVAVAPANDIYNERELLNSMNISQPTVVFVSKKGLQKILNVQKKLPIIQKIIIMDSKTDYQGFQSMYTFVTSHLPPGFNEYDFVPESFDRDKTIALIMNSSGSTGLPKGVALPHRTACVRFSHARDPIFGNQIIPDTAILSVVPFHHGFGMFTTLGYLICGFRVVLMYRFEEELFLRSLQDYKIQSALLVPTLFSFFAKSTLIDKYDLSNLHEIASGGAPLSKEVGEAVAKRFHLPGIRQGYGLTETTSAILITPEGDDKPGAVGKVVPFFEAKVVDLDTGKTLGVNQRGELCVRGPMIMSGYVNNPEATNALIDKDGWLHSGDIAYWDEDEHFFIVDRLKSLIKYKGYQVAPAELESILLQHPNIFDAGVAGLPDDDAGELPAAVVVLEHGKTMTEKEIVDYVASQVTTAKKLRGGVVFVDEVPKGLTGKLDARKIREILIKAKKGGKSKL
T1 sequence (P24462 whole entry): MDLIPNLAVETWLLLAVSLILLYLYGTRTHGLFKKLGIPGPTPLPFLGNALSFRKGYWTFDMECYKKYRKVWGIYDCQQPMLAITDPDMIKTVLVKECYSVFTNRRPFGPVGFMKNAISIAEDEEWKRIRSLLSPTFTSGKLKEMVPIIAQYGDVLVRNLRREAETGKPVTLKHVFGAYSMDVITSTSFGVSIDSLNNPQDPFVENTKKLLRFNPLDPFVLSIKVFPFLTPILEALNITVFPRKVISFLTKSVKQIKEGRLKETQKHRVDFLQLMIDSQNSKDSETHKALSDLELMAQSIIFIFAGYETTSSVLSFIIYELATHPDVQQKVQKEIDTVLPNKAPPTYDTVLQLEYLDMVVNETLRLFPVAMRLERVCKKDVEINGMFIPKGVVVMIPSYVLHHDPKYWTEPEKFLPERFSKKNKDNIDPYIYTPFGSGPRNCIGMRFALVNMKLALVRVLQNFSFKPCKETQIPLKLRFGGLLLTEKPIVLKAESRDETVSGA
T4 sequence (P08684 2-503 limits assumed): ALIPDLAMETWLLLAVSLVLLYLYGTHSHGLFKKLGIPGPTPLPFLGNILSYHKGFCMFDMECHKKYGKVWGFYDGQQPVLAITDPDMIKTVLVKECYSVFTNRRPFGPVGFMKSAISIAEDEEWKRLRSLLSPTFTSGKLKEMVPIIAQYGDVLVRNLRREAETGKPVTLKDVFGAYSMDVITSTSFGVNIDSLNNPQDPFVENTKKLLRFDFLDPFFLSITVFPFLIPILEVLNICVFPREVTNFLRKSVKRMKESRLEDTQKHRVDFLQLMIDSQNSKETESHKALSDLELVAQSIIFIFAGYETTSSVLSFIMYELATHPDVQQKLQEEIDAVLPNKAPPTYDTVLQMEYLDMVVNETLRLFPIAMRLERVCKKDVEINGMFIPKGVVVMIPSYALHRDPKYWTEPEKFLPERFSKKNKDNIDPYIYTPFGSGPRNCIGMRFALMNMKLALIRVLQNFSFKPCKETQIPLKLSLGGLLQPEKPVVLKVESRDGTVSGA
T5 sequence (P09488 whole entry K173N): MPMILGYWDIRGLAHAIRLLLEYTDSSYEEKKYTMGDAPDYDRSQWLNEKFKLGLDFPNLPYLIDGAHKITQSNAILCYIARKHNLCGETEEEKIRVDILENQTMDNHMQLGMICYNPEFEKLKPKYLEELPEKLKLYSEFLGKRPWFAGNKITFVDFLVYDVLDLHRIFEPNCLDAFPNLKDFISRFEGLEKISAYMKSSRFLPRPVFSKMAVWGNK
CYP3A5, sequence (P20815 whole entry): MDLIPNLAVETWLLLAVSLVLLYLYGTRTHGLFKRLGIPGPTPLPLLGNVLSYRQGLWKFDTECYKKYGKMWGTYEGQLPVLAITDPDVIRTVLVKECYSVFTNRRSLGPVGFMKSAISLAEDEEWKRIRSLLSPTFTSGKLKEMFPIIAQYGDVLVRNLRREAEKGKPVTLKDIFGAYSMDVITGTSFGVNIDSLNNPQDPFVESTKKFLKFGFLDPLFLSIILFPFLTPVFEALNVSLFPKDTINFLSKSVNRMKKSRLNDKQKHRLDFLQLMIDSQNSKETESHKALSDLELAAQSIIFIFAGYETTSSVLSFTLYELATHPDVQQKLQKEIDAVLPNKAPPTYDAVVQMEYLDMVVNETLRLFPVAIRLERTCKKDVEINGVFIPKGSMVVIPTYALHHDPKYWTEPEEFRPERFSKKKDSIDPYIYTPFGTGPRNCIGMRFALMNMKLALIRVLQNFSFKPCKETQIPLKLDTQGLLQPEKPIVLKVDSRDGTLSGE

In the case of `CC(=O)N1CCN(c2ccc(OCC3COC(Cn4ccnc4)(c4ccc(Cl)cc4Cl)O3)cc2)CC1` (stereo not drawn) [ketoconazole], the “CYP3A-dependent luminescence in human hepatocytes” value [1] is reported as “inhibition by ketoconazole of both basal and rifampicin-induced activity”.
In the case of `O=C(O)[C@H]1CSC(c2nc3ccc(OCc4ccccc4)cc3s2)=N1` [luciferin 6-benzyl ether, reference compound], the “P450 activity / selectivity with the derivative as substrate” value (from here on “P450 activity / selectivity”) [2] is reported as “cross reacted significantly”, the “P450 activity / cross reactivity with the derivative as substrate” value [3] is reported as “cross reacted” and the background luminescence ([4]; on a BMG luminometer, minus P450) is reported as “about 5000 RLU”. The “background luminescence (minus P450 control samples)” value ([4]; result in words) was “high background luminescence”, the light emission values ([5]; Derivative Conc. 1.07, Alone) was 29234 and the light emission values ([5]; Derivative Conc. 1.07, Co A) was 50144. For the same molecule, the light emission values [5, 18] was 51799, the light emission values ([5]; Derivative Conc. 1.07, DTT) was 57066 and the light emission values ([5]; Derivative Conc. 3.13, Alone) was 32994. For the same molecule, the light emission values ([5]; Derivative Conc. 3.13, Co A) was 55778, the light emission values [5, 19] was 80626 and the light emission values ([5]; Derivative Conc. 3.13, DTT) was 86445. For the same molecule, the light emission values ([5]; Derivative Conc. 6.25, Alone) was 38838, the light emission values ([5]; Derivative Conc. 6.25, Co A) was 58288 and the light emission values [5, 20] was 105912. The light emission values ([5]; Derivative Conc. 6.25, DTT) was 100044, the light emission values ([5]; Derivative Conc. 12.5, Alone) was 40486 and the light emission values ([5]; Derivative Conc. 12.5, Co A) was 57996. It also gave a light emission values [5, 21] of 97371, a light emission values ([5]; Derivative Conc. 12.5, DTT) of 94861 and a light emission values ([5]; Derivative Conc. 25, Alone) of 40093. For the same molecule, the light emission values ([5]; Derivative Conc. 25, Co A) was 53097, the light emission values [5, 22] was 90306 and the light emission values ([5]; Derivative Conc. 25, DTT) was 84034. The light emission values ([5]; Derivative Conc. 50, Alone) was 30609, the light emission values ([5]; Derivative Conc. 50, Co A) was 38349 and the light emission values [5, 23] was 98716. It also gave a light emission values ([5]; Derivative Conc. 50, DTT) of 80001, a light emission values ([5]; Derivative Conc. 100, Alone) of 31581 and a light emission values ([5]; Derivative Conc. 100, Co A) of 33199. For the same molecule, the light emission values [5, 24] was 64460, the light emission values ([5]; Derivative Conc. 100, DTT) was 54592 and the “reaction with CYP4F12” value [6] was “react also with CYP4F12”. The “competition at the substrate binding sites on CYP3A4” value [7] was “only competitive at 1 site”.
For `OCC(Cl)(Cl)Cl` [trichloroethanol, 2,2,2, trichloroethanol], the “Relative Light Units” value [8] was 524.8 and 342.1.
For `O=C(O)[C@H]1CSC(c2ccc3cc(Oc4ccc(C(F)(F)F)cc4[N+](=O)[O-])ccc3n2)=N1` [GST #3, 6-(2-nitro-4-trifluoromethyl-phenoxy)quinolinyl-luciferin], the light emission values ([5]; Derivative Conc. 1.07, Alone) was 3232, the light emission values ([5]; Derivative Conc. 1.07, Co A) was 3081 and the light emission values [5, 18] was 6964. The light emission values ([5]; Derivative Conc. 1.07, DTT) was 5953, the light emission values ([5]; Derivative Conc. 3.13, Alone) was 4913 and the light emission values ([5]; Derivative Conc. 3.13, Co A) was 4832. The light emission values [5, 19] was 8826, the light emission values ([5]; Derivative Conc. 3.13, DTT) was 9106 and the light emission values ([5]; Derivative Conc. 6.25, Alone) was 7682. The light emission values ([5]; Derivative Conc. 6.25, Co A) was 7149, the light emission values [5, 20] was 10423 and the light emission values ([5]; Derivative Conc. 6.25, DTT) was 11164. It also gave a light emission values ([5]; Derivative Conc. 12.5, Alone) of 11752, a light emission values ([5]; Derivative Conc. 12.5, Co A) of 10674 and a light emission values [5, 21] of 14298. It also gave a light emission values ([5]; Derivative Conc. 12.5, DTT) of 16587, a light emission values ([5]; Derivative Conc. 25, Alone) of 15957 and a light emission values ([5]; Derivative Conc. 25, Co A) of 14791. The light emission values [5, 22] was 18145, the light emission values ([5]; Derivative Conc. 25, DTT) was 21256 and the light emission values ([5]; Derivative Conc. 50, Alone) was 17409. For the same molecule, the light emission values ([5]; Derivative Conc. 50, Co A) was 15440, the light emission values [5, 23] was 20009 and the light emission values ([5]; Derivative Conc. 50, DTT) was 22888. The light emission values ([5]; Derivative Conc. 100, Alone) was 16388, the light emission values ([5]; Derivative Conc. 100, Co A) was 18343 and the light emission values [5, 24] was 19129. The light emission values ([5]; Derivative Conc. 100, DTT) was 21472, the “Light Output” value ([9]; Table 4 reaction 2: BisTris pH 6.5, 5 µl 100 mM glutathione, no GST, 20 minutes post mixing) was 1.287 and the “Light Output” value ([9]; Table 4 reaction 2: BisTris pH 6.5, 5 µl 100 mM glutathione, no GST, 40 minutes post mixing) was 1.761. For the same molecule, the “Light Output” value ([9]; Table 4 reaction 2: BisTris pH 6.5, 5 µl 100 mM glutathione, no GST, at time of mixing) was 1.13, the “Light Output” value ([9]; Table 4 reaction 4: HEPES pH 7.0, glutathione, 20 minutes post mixing) was 1.178 and the “Light Output” value ([9]; Table 4 reaction 4: HEPES pH 7.0, glutathione, 40 minutes post mixing) was 2.2. For the same molecule, the “Light Output” value ([9]; Table 4 reaction 4: HEPES pH 7.0, glutathione, at time of mixing) was 1.156 and the “substrate preference among GSTs in a light generating reaction” value [10] was “better substrate for equine GST”.
In the case of quinolylluciferin 6-benzyl ether, the “P450 activity / selectivity” value [11] is reported as “to a lesser degree a substrate” and the “P450 activity / selectivity” value [12] is reported as “preferred substrate”.
In the case of `COC(=O)[C@H]1CSC(c2ccc3cc(Oc4ccc(C(F)(F)F)cc4[N+](=O)[O-])ccc3n2)=N1` [GST-4, Methyl 6-(2-nitro-4-trifluoromethyl-phenoxy)quinolinyl-luciferin ester], the “substrate preference among GSTs in a light generating reaction” value [13] is reported as “better substrate for GST M1-1”.
With `O=C(O)[C@H]1CSC(c2nc3ccc(O)c(F)c3s2)=N1` [7'-fluoroluciferin] the “λmax of luminescence, red-shifted from regular luciferin” value [14] was “approximately 21 nm”, the “ATP requirement of the luciferase reaction compared with luciferin” value [15] was “requirement for ATP is much higher” and the “pH optima for the firefly luciferase reaction” value [16] was ~7.5 pH.
In the case of `O=C(O)[C@H]1CSC(c2nc3ccc(OCc4ccc(C(F)(F)F)cc4)cc3s2)=N1` [Luciferin-6-trifluoromethylbenzylether], the “P450 activity / selectivity” value [17] is reported as “enhanced selectivity”.
